Tests used:
Assay type in all cases: cell-based, human
[1] = system: BXPC-3; experiment: NCI sulforhodamine B growth inhibition, pancreas cancer cells; settings: BXPC3 pancreas, 48 h
Experimental: (§1) Inhibition of human cancer cell growth was assessed using the National Cancer Institute's standard sulforhodamine B assay as previously described.^19In summary, cells in a 5% fetal bovine serum/RPMI1640 medium were inoculated in 96-well plates and incubated for 24 hrs. Next, serial dilutions of the compounds were added. After 48 h, the plates were fixed with trichloroacetic acid, stained with sulforhodamine B, and read with an automated microplate reader. A growth inhibition of 50% (GI50 or the drug concentration causing a 50% reduction in the net protein increase) was calcd from optical density data with Immunosoft software. Normal cells were treated in identical conditions. Normal human prostate CRL-2221 (PZ—HPV-7) was grown in MEM 10% FBS and normal human breast MCF-10A in MEGM kit.

[2] = system: mini panel of cancer cell lines; experiment: Growth inhibition across the mini panel of cancer cell lines; settings: mini panel of cancer cell lines (Table 1)
Experimental: as §1
The growth inhibition property of the silstatins and some intermediates were evaluated against a mini panel of cancer cell lines (Table 1).

[3] = system: KM20L2; experiment: NCI sulforhodamine B growth inhibition, colon cancer cells; settings: 48 h
Experimental: as §1

[4] = system: MCF-7; experiment: NCI sulforhodamine B growth inhibition, breast cancer cells; settings: MCF-7 breast, 48 h
Experimental: as §1

[5] = system: NCI-H460; experiment: NCI sulforhodamine B growth inhibition, lung cancer cells; settings: 48 h
Experimental: as §1

[6] = system: SF268; experiment: NCI sulforhodamine B growth inhibition, CNS cancer cells; settings: 48 h
Experimental: as §1

[7] = system: DU-145; experiment: NCI sulforhodamine B growth inhibition, prostate cancer cells; settings: DU145 prostate, 48 h
Experimental: as §1

Structure (SMILES): CC(C)C[C@H]1OC(=O)[C@H](C(C)C)NC(=O)[C@H](C)OC(=O)[C@@H](C(C)C)NC(=O)[C@@H](CC(C)C)OC(=O)[C@H](C(C)C)NC(=O)[C@H](C)OC(=O)[C@@H](C(C)C)NC(=O)[C@@H](CC(C)C)OC(=O)[C@H](C(C)C)NC(=O)[C@H](C)OC(=O)[C@@H](C(C)C)NC1=O [Silstatin 1 (7a), Cyclo-[Val-D-Hica-D-Val-Lac]3]
- Growth inhibition of human cancer cell lines GI50 [1]: 0.0008 µg/mL
- Cancer cell growth inhibition, assessment in words [2]: did not affect its high potency
- Growth inhibition of human cancer cell lines GI50 [3]: 0.00016 µg/mL
- Growth inhibition of human cancer cell lines GI50 [4]: 0.00011 µg/mL
- Growth inhibition of human cancer cell lines GI50 [5]: 0.0007 µg/mL
- Growth inhibition of human cancer cell lines GI50 [6]: 0.00021 µg/mL
- Growth inhibition of human cancer cell lines GI50 [7]: 0.00042 µg/mL

Structure (SMILES): CC(C)C[C@H]1OC(=O)[C@H](C(C)C)NC(=O)[C@H](C)OC(=O)[C@@H](C(C)C)NC(=O)[C@@H](CC(C)C)OC(=O)[C@H]([C@@H](C)O)NC(=O)[C@H](C)OC(=O)[C@@H](C(C)C)NC(=O)[C@@H](CC(C)C)OC(=O)[C@H](C(C)C)NC(=O)[C@H](C)OC(=O)[C@@H](C(C)C)NC1=O [Silstatin 2 (8a), Cyclo-{Thr-D-Hica-D-Val-Lac-[Val-D-Hica-D-Val-Lac]2}]
- Growth inhibition of human cancer cell lines GI50 [1]: 0.004 µg/mL
- Cancer cell growth inhibition, assessment in words [2]: somewhat decreased activity
- Growth inhibition of human cancer cell lines GI50 [3]: 0.0033 µg/mL
- Growth inhibition of human cancer cell lines GI50 [4]: 0.0022 µg/mL
- Growth inhibition of human cancer cell lines GI50 [5]: 0.0032 µg/mL
- Growth inhibition of human cancer cell lines GI50 [6]: 0.0031 µg/mL
- Growth inhibition of human cancer cell lines GI50 [7]: 0.006 µg/mL

Structure (SMILES): CC(C)C[C@H]1OC(=O)[C@H](Cc2ccc(O)cc2)NC(=O)[C@H](C)OC(=O)[C@@H](C(C)C)NC(=O)[C@@H](CC(C)C)OC(=O)[C@H](C(C)C)NC(=O)[C@H](C)OC(=O)[C@@H](C(C)C)NC(=O)[C@@H](CC(C)C)OC(=O)[C@H](C(C)C)NC(=O)[C@H](C)OC(=O)[C@@H](C(C)C)NC1=O [Silstatin 3 (8b), Cyclo-{Tyr-D-Hica-D-Val-Lac-[Val-D-Hica-D-Val-Lac]2}]
- Growth inhibition of human cancer cell lines GI50 [1]: 0.005 µg/mL
- Cancer cell growth inhibition, assessment in words [2]: somewhat decreased activity
- Growth inhibition of human cancer cell lines GI50 [3]: 0.0011 µg/mL
- Growth inhibition of human cancer cell lines GI50 [4]: 0.0016 µg/mL
- Growth inhibition of human cancer cell lines GI50 [5]: 0.0037 µg/mL
- Growth inhibition of human cancer cell lines GI50 [6]: 0.004 µg/mL
- Growth inhibition of human cancer cell lines GI50 [7]: 0.0051 µg/mL

Structure (SMILES): CC(C)[C@@H]1NC(=O)[C@H](C)OC(=O)[C@@H](C(C)C)NC(=O)[C@@H](CC2CCCCC2)OC(=O)[C@H](C(C)C)NC(=O)[C@H](C)OC(=O)[C@@H](C(C)C)NC(=O)[C@@H](CC2CCCCC2)OC(=O)[C@H](C(C)C)NC(=O)[C@H](C)OC(=O)[C@@H](C(C)C)NC(=O)[C@@H](CC2CCCCC2)OC1=O [Silstatin 4 (14a), Cyclo-[Val-D-Hcha-D-Val-Lac]3]
- Growth inhibition of human cancer cell lines GI50 [1]: 0.5 µg/mL
- Cancer cell growth inhibition, assessment in words [2]: marked reduction of cancer cell growth inhibition capability
- Growth inhibition of human cancer cell lines GI50 [3]: 0.18 µg/mL
- Growth inhibition of human cancer cell lines GI50 [4]: 0.18 µg/mL
- Growth inhibition of human cancer cell lines GI50 [5]: 0.4 µg/mL
- Growth inhibition of human cancer cell lines GI50 [6]: 0.081 µg/mL
- Growth inhibition of human cancer cell lines GI50 [7]: 0.22 µg/mL

Structure (SMILES): CC(C)[C@@H]1NC(=O)[C@H](C)OC(=O)[C@@H](C(C)C)NC(=O)[C@@H](CC2CCCCC2)OC(=O)[C@H]([C@@H](C)O)NC(=O)[C@H](C)OC(=O)[C@@H](C(C)C)NC(=O)[C@@H](CC2CCCCC2)OC(=O)[C@H](C(C)C)NC(=O)[C@H](C)OC(=O)[C@@H](C(C)C)NC(=O)[C@@H](CC2CCCCC2)OC1=O [Silstatin 5 (15a), Cyclo-{Thr-D-Hcha-D-Val-Lac-[Val-D-Hcha-D-Val-Lac]2}]
- Growth inhibition of human cancer cell lines GI50 [1]: 0.03 µg/mL
- Cancer cell growth inhibition, assessment in words [2]: very high inhibitory activity
- Growth inhibition of human cancer cell lines GI50 [3]: 0.0044 µg/mL
- Growth inhibition of human cancer cell lines GI50 [4]: 0.0031 µg/mL
- Growth inhibition of human cancer cell lines GI50 [5]: 0.021 µg/mL
- Growth inhibition of human cancer cell lines GI50 [6]: 0.0044 µg/mL
- Growth inhibition of human cancer cell lines GI50 [7]: 0.005 µg/mL

Structure (SMILES): CC(C)[C@@H]1NC(=O)[C@H](C)OC(=O)[C@@H](C(C)C)NC(=O)[C@@H](CC2CCCCC2)OC(=O)[C@H](C(C)C)NC(=O)[C@H](C)OC(=O)[C@@H](C(C)C)NC(=O)[C@@H](CC2CCCCC2)OC(=O)[C@H](Cc2ccc(O)cc2)NC(=O)[C@H](C)OC(=O)[C@@H](C(C)C)NC(=O)[C@@H](CC2CCCCC2)OC1=O [Silstatin 6 (15b), Cyclo-{Tyr-D-Hcha-D-Val-Lac-[Val-D-Hcha-D-Val-Lac]2}]
- Growth inhibition of human cancer cell lines GI50 [1]: 0.53 µg/mL
- Cancer cell growth inhibition, assessment in words [2]: marked reduction of cancer cell growth inhibition capability
- Growth inhibition of human cancer cell lines GI50 [3]: 0.09 µg/mL
- Growth inhibition of human cancer cell lines GI50 [4]: 0.12 µg/mL
- Growth inhibition of human cancer cell lines GI50 [5]: 0.32 µg/mL
- Growth inhibition of human cancer cell lines GI50 [6]: 0.05 µg/mL
- Growth inhibition of human cancer cell lines GI50 [7]: 0.22 µg/mL

Structure (SMILES): CC(C)C[C@H]1OC(=O)[C@H](Cc2ccc(OC(C)(C)C)cc2)NC(=O)[C@H](C)OC(=O)[C@@H](C(C)C)NC(=O)[C@@H](CC(C)C)OC(=O)[C@H](C(C)C)NC(=O)[C@H](C)OC(=O)[C@@H](C(C)C)NC(=O)[C@@H](CC(C)C)OC(=O)[C@H](C(C)C)NC(=O)[C@H](C)OC(=O)[C@@H](C(C)C)NC1=O [Silstatin 7c, Cyclo-{Tyr(tBu)-D-Hica-D-Val-Lac-[Val-D-Hica-D-Val-Lac]2}]
- Growth inhibition of human cancer cell lines GI50 [1]: 0.03 µg/mL
- Growth inhibition of human cancer cell lines GI50 [3]: 0.0048 µg/mL
- Growth inhibition of human cancer cell lines GI50 [4]: 0.0042 µg/mL
- Growth inhibition of human cancer cell lines GI50 [5]: 0.029 µg/mL
- Growth inhibition of human cancer cell lines GI50 [6]: 0.0025 µg/mL
- Growth inhibition of human cancer cell lines GI50 [7]: 0.011 µg/mL

Structure (SMILES): CC(C)[C@@H]1NC(=O)[C@H](C)OC(=O)[C@@H](C(C)C)NC(=O)[C@@H](CC2CCCCC2)OC(=O)[C@H]([C@@H](C)OC(C)(C)C)NC(=O)[C@H](C)OC(=O)[C@@H](C(C)C)NC(=O)[C@@H](CC2CCCCC2)OC(=O)[C@H](C(C)C)NC(=O)[C@H](C)OC(=O)[C@@H](C(C)C)NC(=O)[C@@H](CC2CCCCC2)OC1=O [Silstatin 14b, Cyclo-{Thr(tBu)-D-Hcha-D-Val-Lac-[Val-D-Hcha-D-Val-Lac]2}]
- Growth inhibition of human cancer cell lines GI50 [1]: 0.18 µg/mL
- Growth inhibition of human cancer cell lines GI50 [3]: 0.08 µg/mL
- Growth inhibition of human cancer cell lines GI50 [4]: 0.075 µg/mL
- Growth inhibition of human cancer cell lines GI50 [5]: 0.32 µg/mL
- Growth inhibition of human cancer cell lines GI50 [6]: 0.075 µg/mL
- Growth inhibition of human cancer cell lines GI50 [7]: 0.12 µg/mL

Structure (SMILES): CC(C)[C@@H]1NC(=O)[C@H](C)OC(=O)[C@@H](C(C)C)NC(=O)[C@@H](CC2CCCCC2)OC(=O)[C@H](C(C)C)NC(=O)[C@H](C)OC(=O)[C@@H](C(C)C)NC(=O)[C@@H](CC2CCCCC2)OC(=O)[C@H](Cc2ccc(OC(C)(C)C)cc2)NC(=O)[C@H](C)OC(=O)[C@@H](C(C)C)NC(=O)[C@@H](CC2CCCCC2)OC1=O [Silstatin 14c, Cyclo-{Tyr(tBu)-D-Hcha-D-Val-Lac-[Val-D-Hcha-D-Val-Lac]2}]
- Growth inhibition of human cancer cell lines GI50 [1]: >1 µg/mL
- Growth inhibition of human cancer cell lines GI50 [3]: >1 µg/mL
- Growth inhibition of human cancer cell lines GI50 [4]: >1 µg/mL
- Growth inhibition of human cancer cell lines GI50 [5]: >1 µg/mL
- Growth inhibition of human cancer cell lines GI50 [6]: >1 µg/mL
- Growth inhibition of human cancer cell lines GI50 [7]: >1 µg/mL

Structure (SMILES): CC(C)C[C@H]1OC(=O)[C@H](C(C)C)NC(=O)[C@H](C)OC(=O)[C@@H](C(C)C)NC(=O)[C@@H](CC2CCCCC2)OC(=O)[C@H]([C@@H](C)OC(C)(C)C)NC(=O)[C@H](C)OC(=O)[C@@H](C(C)C)NC(=O)[C@@H](CC(C)C)OC(=O)[C@H](C(C)C)NC(=O)[C@H](C)OC(=O)[C@@H](C(C)C)NC1=O [Silstatin 17a, Cyclo-{Thr(tBu)-D-Hcha-D-Val-Lac-[Val-D-Hica-D-Val-Lac]2}]
- Growth inhibition of human cancer cell lines GI50 [1]: 0.023 µg/mL
- Growth inhibition of human cancer cell lines GI50 [3]: 0.0024 µg/mL
- Growth inhibition of human cancer cell lines GI50 [4]: 0.001 µg/mL
- Growth inhibition of human cancer cell lines GI50 [5]: 0.009 µg/mL
- Growth inhibition of human cancer cell lines GI50 [6]: 0.004 µg/mL
- Growth inhibition of human cancer cell lines GI50 [7]: 0.007 µg/mL

Structure (SMILES): CC(C)C[C@H]1OC(=O)[C@H](C(C)C)NC(=O)[C@H](C)OC(=O)[C@@H](C(C)C)NC(=O)[C@@H](CC(C)C)OC(=O)[C@H](C(C)C)NC(=O)[C@H](C)OC(=O)[C@@H](C(C)C)NC(=O)[C@@H](CC2CCCCC2)OC(=O)[C@H](Cc2ccc(OC(C)(C)C)cc2)NC(=O)[C@H](C)OC(=O)[C@@H](C(C)C)NC1=O [Silstatin 17b, Cyclo-{Tyr(tBu)-D-Hcha-D-Val-Lac-[Val-D-Hica-D-Val-Lac]2}]
- Growth inhibition of human cancer cell lines GI50 [1]: 0.09 µg/mL
- Growth inhibition of human cancer cell lines GI50 [3]: 0.052 µg/mL
- Growth inhibition of human cancer cell lines GI50 [4]: 0.032 µg/mL
- Growth inhibition of human cancer cell lines GI50 [5]: 0.12 µg/mL
- Growth inhibition of human cancer cell lines GI50 [6]: 0.06 µg/mL
- Growth inhibition of human cancer cell lines GI50 [7]: 0.04 µg/mL
